Experimental data: ChEMBL document CHEMBL3885861, “Open TG-GATES”

Organism: Rattus norvegicus
Experiment: Open TG-GATES - Regimen: Daily Repeat
Format: toxicity, organism-based, Sprague-Dawley
Parameters: regimen Daily Repeat, gender Male, age 6 weeks
Details: in vivo, iv, 0 mg/kg, […], route intravenous injection, dose level Control; for KIDNEY_L / KIDNEY_R / KIDNEY_TOTAL: tissue Kidney; for LIVER: tissue Liver; for ALP / ALT / AST / BUN / CRE / Ca / Cl / DBIL / GLC / IP / K / LDH / Na / PL / RALB / TBIL / TC / TG / TP / gamma-GTP: tissue Plasma

Compound CC(=O)OCC1=C(C(=O)O)N2C(=O)[C@@H](NC(=O)Cc3cccs3)[C@H]2SC1 [CEPHALOTHIN] has a Ht (tissue Blood, time 28 day) of 42.3%, a Lym (tissue Blood, time 28 day) of 83.6% and an MCH (tissue Blood, time 28 day) of 19.8 pg. It also gave an MCHC (tissue Blood, time 28 day) of 36.9%, an MCV (tissue Blood, time 28 day) of 53.6 fL and a Mono (tissue Blood, time 28 day) of 2.6%. The Neu (tissue Blood, time 28 day) was 12%, the PT (tissue Blood, time 28 day) was 16.3 s and the Plat (tissue Blood, time 28 day) was 108 x10_4/uL. For the same compound, the RBC (tissue Blood, time 28 day) was 789.2 x10_4/ul, the Ret (tissue Blood, time 28 day) was 2.4% and the WBC (tissue Blood, time 28 day) was 108.4 x10_2/uL. It also gave a KIDNEY_L (time 7 day) of 1 g, a KIDNEY_R (time 7 day) of 1.1 g and a KIDNEY_TOTAL (time 7 day) of 2.1 g. It also gave a KIDNEY_L (time 14 day) of 1.2 g, a KIDNEY_R (time 14 day) of 1.3 g and a KIDNEY_TOTAL (time 14 day) of 2.5 g. For the same compound, the KIDNEY_L (time 28 day) was 1.3 g, the KIDNEY_R (time 28 day) was 1.3 g and the KIDNEY_TOTAL (time 28 day) was 2.5 g. For the same compound, the LIVER (time 7 day) was 11.4 g, the LIVER (time 14 day) was 12.9 g and the LIVER (time 28 day) was 14.2 g. For the same compound, the ALP (time 7 day) was 1413.8 IU/L, the ALT (time 7 day) was 35 IU/L and the AST (time 7 day) was 71.2 IU/L. It also gave a BUN (time 7 day) of 18.6 mg/dL, a CRE (time 7 day) of 0.2 mg/dL and a Ca (time 7 day) of 10.7 mg/dL. It also gave a Cl (time 7 day) of 107 meq/L, a DBIL (time 7 day) of 0 mg/dL and a GLC (time 7 day) of 182 mg/dL. It also gave an IP (time 7 day) of 7 mg/dL, a K (time 7 day) of 4.4 meq/L and an LDH (time 7 day) of 177.6 IU/L. It also gave a Na (time 7 day) of 142 meq/L, a PL (time 7 day) of 121.8 mg/dL and an RALB (time 7 day) of 2.9 g/dL. It also gave a TBIL (time 7 day) of 0.004 mg/dL, a TC (time 7 day) of 64.8 mg/dL and a TG (time 7 day) of 87.6 mg/dL. The TP (time 7 day) was 5.3 g/dL, the gamma-GTP (time 7 day) was 1.8 IU/L and the ALP (time 14 day) was 1425 IU/L. The ALT (time 14 day) was 34.4 IU/L, the AST (time 14 day) was 63.4 IU/L and the BUN (time 14 day) was 16.8 mg/dL. It also gave a CRE (time 14 day) of 0.2 mg/dL, a Ca (time 14 day) of 10.9 mg/dL and a Cl (time 14 day) of 104.4 meq/L. The DBIL (time 14 day) was 0 mg/dL, the GLC (time 14 day) was 185.8 mg/dL and the IP (time 14 day) was 6.9 mg/dL. It also gave a K (time 14 day) of 4.4 meq/L, an LDH (time 14 day) of 119.2 IU/L and a Na (time 14 day) of 141.4 meq/L. The PL (time 14 day) was 138 mg/dL, the RALB (time 14 day) was 3.1 g/dL and the TBIL (time 14 day) was 0.01 mg/dL. For the same compound, the TC (time 14 day) was 67.8 mg/dL, the TG (time 14 day) was 96.8 mg/dL and the TP (time 14 day) was 5.8 g/dL. For the same compound, the gamma-GTP (time 14 day) was 3.2 IU/L, the ALP (time 28 day) was 967 IU/L and the ALT (time 28 day) was 31.8 IU/L. The AST (time 28 day) was 64.2 IU/L, the BUN (time 28 day) was 18.2 mg/dL and the CRE (time 28 day) was 0.2 mg/dL. The Ca (time 28 day) was 10.4 mg/dL, the Cl (time 28 day) was 105.4 meq/L and the DBIL (time 28 day) was 0 mg/dL. It also gave a GLC (time 28 day) of 188.6 mg/dL, an IP (time 28 day) of 5.9 mg/dL and a K (time 28 day) of 4.3 meq/L. For the same compound, the LDH (time 28 day) was 181.6 IU/L, the Na (time 28 day) was 142.6 meq/L and the PL (time 28 day) was 134.8 mg/dL. For the same compound, the RALB (time 28 day) was 3.1 g/dL, the TBIL (time 28 day) was 0.004 mg/dL and the TC (time 28 day) was 64 mg/dL. The TG (time 28 day) was 131 mg/dL, the TP (time 28 day) was 6.1 g/dL and the gamma-GTP (time 28 day) was 1 IU/L.
